# Measured values: US20240376097A1, “BCL-2 Inhibitor” (BeiGene Ltd., priority 2020, published 2024)
# Where two headings read alike, the source gives them in different places.
# Legend:
# [1] = tested on: BCL-2 G101V knock-in cell line H96 (derive from RS4;11); assay: Bcl 2-G101V Knock-In RS4;11 Cell Proliferation Assay; assay type: cell-based; conditions: RS4;11 Bcl-2 G101V knock-in clone H96, 48 hrs, CellTiter-GLO, read-out: Cellular proliferation assay (IC50, nM) RS4
# Procedure: Biological Example: Bcl 2-G101V Knock-In RS4;11 Cell Proliferation Assay
# (1) RS4;11 H96 Bcl 2-G101V Knock-In Cell Line Generation
# Briefly, RS4;11 BCL2-G101V knock-in cell pool was generated using Crisper/Cas9 gene editing system and the BCL2-G101V knock-in single clone H96 was picked from the knock-in cell pool and validated by WES (whole exome-sequencing) and RNA-seq.
# The BCL-2 dependent acute lymphoblastic leukemia (ALL) cell line, RS4;11(ATCC, CRL-1873), was cultured in RPMI-1640 complete medium (RPMI-1640 medium, HEPES (Gibco, 22400-105) supplemented with 10% fetal bovine serum (FBS) (Gibco, 10099-1441), 100 unit/ml penicillin and 100 μg/ml streptomycin (Gibco, 15140122)) and maintained in a humidified chamber at 37° C. containing 5% CO2.
# To obtain BCL2-G101V knock-in cell pool, RS4;11 was co-transfected with the Cas9-gRNA which also expressed GFP label, and the Donor gene which contained the BCL2-G101V mutant sequence. After 48 hrs of electroporation, the GFP positive cells were collected through FACSAriaIII cell sorting system. Cell pool was recovered for 3 days and then cultured under 2 nM ABT-199 stress for 4 weeks. […] Then cells were plated in 96 well U-plate with 1 cell/well for 10000 wells for single clone selection. After 3-5 weeks growing, clones were successively screened by PCR sequencing. And three BCL2-G101V knock-in clones: H96, H142 and H233, have been picked out.
# Three clones were validated by genome DNA and cDNA(mRNA) PCR sequencing, and BCL-2, BCL-xL and MCL-1 expression using Western Blot. The H96 clone was also validated by WES (whole exome-sequencing) and RNA-seq.
# (2) Bcl 2-G101V Knock-In RS4;11 Cell Proliferation Assay
# The BCL-2 G101V knock-in cell line H96 (derive from RS4;11) were used to study the cellular potency of BCL-2 inhibitors. The cells were cultured in RPMI-1640 complete medium (RPMI-1640 medium, HEPES (Gibco, 22400-105) supplemented with 10% fetal bovine serum (FBS) (Gibco, 10099-1441), 100 unit/ml penicillin and 100 μg/ml streptomycin (Gibco, 15140122)) and maintained in a humidified chamber at 37° C. containing 5% CO2. Each compound was serially diluted with 1 μM or 10 μM as the maximum concentration. To test the apoptotic effect of the compounds, the cells were seeded at 50,000 in 90 μl per well in 96-well plates and treated with 10-point dilution series of each compound for 48 hrs at 37° C. Cell viability was assessed after the treatment using CellTiter-GLO luminescent assay (Promega) according to the manufacturer's recommendations. Briefly, 30 μl of CellTiter-GLO reagent was added into 100 μl of cell culture. Mixture was agitated on an orbital shaker for 5 min to ensure cell lysis followed by 7 min incubation at room temperature to allow development and stabilization of luminescent signals, which corresponded to the quantity of ATP and thus the quantity of metabolically active cells. Luminescent signals were measured using PHERAstar FS reader (BMG). Mean IC50 values were determined with GraphPad Prism software.
# [2] = tested on: RS4;11 (BCL-2 dependent acute lymphoblastic leukemia cell line); assay: RS4;11 Cell Proliferation Assay; assay type: cell-based; conditions: read-out: Cellular proliferation assay (IC50, nM) RS4
# Procedure: Biological Example: RS4;11 Cell Proliferation Assay
# The BCL-2 dependent acute lymphoblastic leukemia (ALL) cell line, RS4;11, was used to study the cellular potency of BCL-2 inhibitors. The cells (ATCC, CRL-1873) were cultured in RPMI-1640 complete medium (RPMI-1640 medium, HEPES (Gibco, 22400-105) supplemented with 10% fetal bovine serum (FBS) (Gibco, 10099-1441), 100 unit/ml penicillin and 100 μg/ml streptomycin (Gibco, 15140122)) and maintained in a humidified chamber at 37° C. containing 5% CO2. Each compound was serially diluted with 1 μM as the maximum concentration. To test the apoptotic effect of the compounds, the cells were seeded at 50,000 in 180 μl per well in 96-well plates and treated with 10-point dilution series of each compound for 48 hrs at 37° C. Cell viability was assessed after the treatment using CellTiter-GLO luminescent assay (Promega) according to the manufacturer's recommendations. Briefly, 30 μl of CellTiter-GLO reagent was added into 200 μl of cell culture. Mixture was agitated on an orbital shaker for 5 min to ensure cell lysis followed by 7 min incubation at room temperature to allow development and stabilization of luminescent signals, which corresponded to the quantity of ATP and thus the quantity of metabolically active cells. Luminescent signals were measured using PHERAstar FS reader (BMG). Mean IC50 values were determined with GraphPad Prism software.
# [3] = biological target: recombinant human Bcl-2-G101V protein (Homo sapiens (Human), UniProt P10415, G101V); assay: Bcl-2-G101V TR-FRET Assay; assay type: binding; conditions: Bcl-2 G101V mutant, TR-FRET; read-out: Biochemical assay (IC50, nM) Bcl-2 G101V
# Outline: (§1)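 Compounds were titrated at increasing concentrations against the Bcl-2-G101V–ligand interaction. TR-FRET signals were then read (ex 337 nm; em 490/520 nm). Percent inhibition was derived from the 490-to-520 nm ratio, and IC50 from a four-parameter logistic equation.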
# [4] = biological target: Recombinant human Bcl-2 protein (Homo sapiens (Human), UniProt P10415); assay: Bcl-2 TR-FRET Assay; assay type: binding; conditions: Bcl-2 wild type, TR-FRET; read-out: Biochemical assay (IC50, nM) Bcl-2 WT
# Outline: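 Compounds were pre-incubated with 0.05 nM recombinant Bcl-2 for 0.5 h at room temperature in potassium phosphate buffer, pH 7.5. FITC-Bak peptide (0.5 nM) and Tb-cryptate antibody were then added for 1 h. Percent inhibition from TR-FRET signals gave IC50 values.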
# [5] = biological target: recombinant human Bcl-2 D103Y protein (Homo sapiens (Human), UniProt P10415, D103Y); assay: Bcl-2-D103Y Biochemical Assay (TR-FRET); assay type: binding; conditions: ratio of IC50
# Procedure: Biological Example: Bcl-2-D103Y Biochemical Assay
# […]. The TR-FRET signals (ex337 nm, em490 nm/520 nm) were read on BMG PHERAstar FSX instrument. The inhibition percentage of Bcl-2 D103Y interaction with its ligand in presence of increasing concentrations of compounds was calculated based on the ratio of fluorescence at 490 nm to that at 520 nm. The IC50 for each compound was derived from fitting the data to the four-parameter logistic equation by Dotmatics.
# [6] = tested on: recombinant human Bcl-2-G101V protein; assay: Bcl-2-G101V TR-FRET Assay; assay type: binding; conditions: ratio of biochemical IC50 Bcl-2 G101V / Bcl-2 WT
# Outline: as §1
# [7] = Homo sapiens, RS4-11, RS4;11 cells
compound,measurement,setting,value
"COCCN1CCN(C2CC3(CCN(c4ccc(C(=O)NS(=O)(=O)c5ccc(NC[C@H]6CC[C@](C)(O)CC6)c([N+](=O)[O-])c5)c(Oc5cnc6[nH]ccc6c5)c4)CC3)C2)C(c2ccccc2C(C)C)C1 (stereo partly shown) [Example 13, 2-((1H-pyrrolo[2,3-b]pyridin-5-yl)oxy)-N-((4-((((1r,4r)-4-hydroxy-4-methylcyclohexyl)methyl)amino)-3-nitrophenyl)sulfonyl)-4-(2-(2-(2-isopropylphenyl)-4-(2-methoxyethyl)piperazin-1-yl)-7-azaspiro[3.5]nonan-7-yl)benzamide]",IC50,[1]; Homo sapiens,5.67 nM
same,IC50,[2]; [7],0.7 nM
"CC(C)c1ccccc1[C@@H]1CN(Cc2cccc3c2OCCO3)CCN1C1CC2(CCN(c3ccc(C(=O)NS(=O)(=O)c4ccc(NC[C@H]5CC[C@](C)(O)CC5)c([N+](=O)[O-])c4)c(Oc4cnc5[nH]ccc5c4)c3)CC2)C1 [Example 79b, 2-((1H-pyrrolo[2,3-b]pyridin-5-yl)oxy)-4-(2-(S-4-((2,3-dihydrobenzo [b][1,4]dioxin-5-yl)methyl)-2-(2-isopropylphenyl)piperazin-1-yl)-7-azaspiro[3.5]nonan-7-yl)-N-((4-((((1r,4r)-4-hydroxy-4-methylcyclohexyl)methyl)amino)-3-nitrophenyl)sulfonyl)benzamide]",IC50,[1]; Homo sapiens,0.68 nM
same,IC50,[2]; [7],0.16 nM
same,IC50,[3],19 nM
same,IC50,[4],0.33 nM
"COc1cc(CN2CCN(C3CC4(CCN(c5ccc(C(=O)NS(=O)(=O)c6ccc(NC[C@H]7CC[C@](C)(O)CC7)c([N+](=O)[O-])c6)c(Oc6cnc7[nH]ccc7c6)c5)CC4)C3)[C@H](c3ccccc3C(C)C)C2)ccc1Cl [Example 276, 2-((1H-pyrrolo[2,3-b]pyridin-5-yl)oxy)-4-(2-((R)-4-(4-chloro-3-methoxybenzyl)-2-(2-isopropylphenyl)piperazin-1-yl)-7-azaspiro[3.5]nonan-7-yl)-N-((4-((((1r,4r)-4-hydroxy-4-methylcyclohexyl)methyl)amino)-3-nitrophenyl)sulfonyl)benzamide]",IC50,[1]; Homo sapiens,0.71 nM
same,IC50,[2]; [7],0.15 nM
"COc1cc(CN2CCN(C3CC4(CCN(c5ccc(C(=O)NS(=O)(=O)c6ccc(NC[C@H]7CC[C@](C)(O)CC7)c([N+](=O)[O-])c6)c(Oc6cnc7[nH]cc(F)c7c6)c5)CC4)C3)[C@H](c3ccccc3C(C)C)C2)ccc1Cl [Example 278, 4-(2-((R)-4-(4-chloro-3-methoxybenzyl)-2-(2-isopropylphenyl)piperazin-1-yl)-7-azaspiro[3.5]nonan-7-yl)-2-((3-fluoro-1H-pyrrolo[2,3-b]pyridin-5-yl)oxy)-N-((4-((((1r,4r)-4-hydroxy-4-methylcyclohexyl)methyl)amino)-3-nitrophenyl)sulfonyl) benzamide]",IC50,[1]; Homo sapiens,0.46 nM
same,IC50,[2]; [7],0.15 nM
"CC(C)c1ccccc1C1CN(CC(C)(C)C)CCN1C1CC2(CCN(c3ccc(C(=O)NS(=O)(=O)c4ccc(NC[C@H]5CC[C@](C)(O)CC5)c([N+](=O)[O-])c4)c(Oc4cnc5[nH]ccc5c4)c3)CC2)C1 (stereo partly shown) [Example 12, 2-((1H-pyrrolo[2,3-b]pyridin-5-yl)oxy)-N-((4-((((1r,4r)-4-hydroxy-4-methylcyclohexyl)methyl)amino)-3-nitrophenyl)sulfonyl)-4-(2-(2-(2-isopropylphenyl)-4-neopentylpiperazin-1-yl)-7-azaspiro[3.5]nonan-7-yl)benzamide]",IC50,[1]; Homo sapiens,40.5 nM
same,IC50,[2]; [7],3 nM
"COc1cc(CN2CCN(C3CC4(CCN(c5ccc(C(=O)NS(=O)(=O)c6ccc(NC[C@H]7CC[C@](C)(O)CC7)c([N+](=O)[O-])c6)c(Oc6cnc7[nH]cc(F)c7c6)c5)CC4)C3)[C@H](c3ccccc3C(C)C)C2)cc(C)c1OC [Example 210, 4-(2-((R)-4-(3,4-dimethoxy-5-methylbenzyl)-2-(2-isopropylphenyl)piperazin-1-yl)-7-azaspiro[3.5]nonan-7-yl)-2-((3-fluoro-1H-pyrrolo[2,3-b]pyridin-5-yl)oxy)-N-((4-((((1r,4r)-4-hydroxy-4-methylcyclohexyl)methyl)amino)-3-nitrophenyl)sulfonyl)benzamide]",IC50,[1]; Homo sapiens,0.54 nM
same,IC50,[2]; [7],0.12 nM
"2-((1H-pyrrolo[2,3-b]pyridin-5-yl)oxy)-N-((4-((((1r,4r)-4-bydroxy-4-methylcyclohexyl)methyl)amino)-3-nitrophenyl)sulfonyl)-4-(2-((R or S)-2-(2-isopropylphenyl)-4-(2-methoxyethyl)piperazin-1-yl)-7-azaspiro[3.5]nonan-7-yl)benzamide [Example 13b]",IC50,[1],2.81 nM
same,Ratio of Bcl-2 D103Y/Bcl-2 WT,[5],12
same,IC50,[2]; RS4;11 cells,0.32 nM
same,Ratio of Bcl-2 G101V/WT,[6],22.1
"CC(C)c1ccccc1C1CN(C(C)c2ccccc2)CCN1C1CC2(CCN(c3ccc(C(=O)NS(=O)(=O)c4ccc(NC[C@H]5CC[C@](C)(O)CC5)c([N+](=O)[O-])c4)c(Oc4cnc5[nH]ccc5c4)c3)CC2)C1 (single isomer, unassigned) [Example 24a, 2-((1H-pyrrolo[2,3-b]pyridin-5-yl)oxy)-N-((4-((((1r,4r)-4-hydroxy-4-methylcyclohexyl)methyl)amino)-3-nitrophenyl)sulfonyl)-4-(2-(2-(2-isopropylphenyl)-4-(1-phenylethyl)piperazin-1-yl)-7-azaspiro[3.5]nonan-7-yl)benzamide]",IC50,[2]; RS4;11 cells,3.4 nM
same,Ratio of Bcl-2 G101V/WT,[6],18.6
same,IC50,[3],6.9 nM
same,IC50,[4],0.37 nM
